Where a name gives a salt, the structure may show the parent alone.
How the values were obtained:
[1] = tested on: mitochondrial succinate reductase; experiment: Mitochondrial reductase activity, MTT test (Example 1); format: in vivo, mice; details: striatum, 24 hr after excitotoxic injury; control group 74.52%±4.86%
Experimental: (§1) Twenty-four hours after excitotoxic injury, mice were sacrificed by rapid decapitation under anesthesia. The lesioned (left) hemisphere was dissected into striatal and nonstriatal areas. The contralateral hemisphere was then dissected into the corresponding parts. Synaptosomes were prepared essentially as described previously (Andersen J M, Myhre O, Fonnum F. 2003. Discussion of the role of the extracellular signal-regulated kinase-phospholipase A2 pathway in production of reactive oxygen species in Alzheimer's disease. Neurochem Res 28: 319-326.). Briefly, different regions of the brain were removed and placed on ice. Specimens with the same areas and treatment conditions were pooled (n=2) and subjected to homogenization on ice in 10 volumes of 0.32M sucrose. Homogenates were centrifuged at 4° C. for 10 min at 600 g. The supernatant was then diluted 1:1 with 1.3M sucrose to obtain a suspension with a final sucrose concentration of 0.8M. This suspension was subjected to centrifugation at 20,000 g for 30 min at 4° C., yielding a myelin-rich supernatant and a pellet (P2) consisting of synaptosomes free of myelin. […]
Mitochondrial metabolic function was assessed by the conversion of the dye methylthiazoletetrazolium (MTT) to purple formazan. […] The formation of formazan was quantitated spectrophotometrically at 570 nm using a Microplate Reader.

[2] = tested on: excitotoxic injury (NMDA injected into the left striatum); experiment: Locomotor activity test before and after intrastriatal NMDA excitotoxic injury (Example 1); format: in vivo; details: mice, oral gavage 2 days before intrastriatal NMDA; tested 24 hr after injury; n=8
From the text: Memantine hydrochloride (>98.5% white crystalline powder) was supplied by Lotus Pharmaceutical Co., Ltd. (Taipei, Taiwan). Tea polyphenols were isolated from Longjing green tea with the following composition: epigallocatechin, 14.69%; catechin, 1.13%; epigallocatechin-3-gallate, 41.34%; epicatechin, 5.47%; gallocatechin-3-gallate, 5.16%; epicatechin-3 gallate, 12.54%; coffein, 0.95%; and other catechin derivatives, 18% (Yeh C W, Chen W J, Chiang C T, Lin-Shiau S Y, Lin J K. 2003. Suppression of fatty acid synthase in MCF-7 breast cancer cells by tea and tea polyphenols: a possible mechanism for their hypolipidemic effects. Pharmacogenomics J 3: 267-276.). Memantine (10 mg/kg/day), tea polyphenol (60 mg/kg/day), or a combination (memantine 5 mg/kg/day plus tea polyphenol 30 mg/kg/day) was dissolved in distilled water and administered by oral gavage for 2 consecutive days before causing excitotoxic injury. The experimental design had 5 groups: the sham operation group, the control group, the memantine group, the tea polyphenol group, and the tea polyphenol plus memantine group.
Weight and rectal temperature of each mouse were recorded before the surgical procedure. Anesthesia was induced with 5% chloral hydrate (400 mg/kg). […] Throughout the experimental procedure, mouse rectal temperature was monitored and maintained at 37.0° C.±0.5° C. […]

[3] = tested on: NMDA-induced seizures (icv NMDA); experiment: NMDA-induced seizure score (Example 2); format: in vivo, mice; details: pretreatment before icv 8 mM NMDA (3 μl); control vehicle 90±10%
From the text: In NMDA-treated mice, seizures developed through a sequence of paroxysmal scratching, hypermotility and aircling, tonic-clonic convulsions and, occasionally, death. The following semi-quantitative scale was used for the examination of excitotoxic severity: 0, no response; 1, excessive grooming plus paroxysmal scratching; 2, mild hypermotility; 3, extensive hypermotility and circling; 4, forepaw clonus plus tail hypertonus; 5, generalized tonic-clonic convulsions; 6, “status epilepticus” and death (Marganella et al. 2005. Comparative effects of levobupivacaine and racemic bupivacaine on excitotoxic neuronal death in culture and N-methyl-D-aspartate-induced seizures in mice. Eur. J. Pharmacol. 518: 111-115). The latency (in sec) for generalized (clonic or tonic-clonic convulsions) seizures was also determined.

NO levels = NO levels of brain synaptosomes (Example 2); format: in vivo, mice; details: FIG. 11E
[4] = tested on: NMDA-induced neurotoxicities; experiment: Rotarod motor equilibrium performance with icv NMDA (Example 2)
Experimental: Their neuroprotective effects were evaluated after pretreatment for fourteen days or one day prior to the intracerebroventricular injection (icy) of 8 mM NMDA (3 μl).
One day before the experiment, mice were tested through ten consecutive sessions to stay on the rod and reach the cut off time of 180 s. One day after injection, mice were tested again. The retention time, defined as total time (sec) remaining on the rod, was recorded at each session.

Mg2+-ATPase = Mg2+-ATPase activity of synaptosomes after excitotoxic injury (Example 1); format: in vivo, mice; details: striatum synaptosomes 24 hr after excitotoxic injury
Experimental: (§2) Twenty-four hours after excitotoxic injury, mice were sacrificed by rapid decapitation under anesthesia. The lesioned (left) hemisphere was dissected into striatal and nonstriatal areas. The contralateral hemisphere was then dissected into the corresponding parts. Synaptosomes were prepared essentially as described previously (Andersen J M, Myhre O, Fonnum F. 2003. Discussion of the role of the extracellular signal-regulated kinase-phospholipase A2 pathway in production of reactive oxygen species in Alzheimer's disease. Neurochem Res 28: 319-326.). Briefly, different regions of the brain were removed and placed on ice. […]
(§3) ATPase activity was determined by measuring the amount of inorganic phosphate (Pi) released from the substrate ATP according to a previously described colorimetric method. The method permitted the quantification of Na^+, K^+-ATPase and Mg^2+-ATPase activity in the same sample. […] Optical density at 630 nm was determined by an ELISA reader (Dynatech MR-7000). The absorbance values obtained were converted to activity values by linear regression using a standard curve for sodium monobasic phosphate included in the assay at various concentrations. […] Protein concentration was determined colorimetrically with a commercial bicinchoninic acid kit (Pierce, Rockford, Ill.).

[5] = tested on: NMDA-decreased locomotor activities; experiment: Open field locomotor activity test with icv NMDA (Example 2)
Experimental: In this example, the combination of TP with M (memantine) in three different dosage ratios of 6:1, 3:1, and 10:1 respectively; these are TPM6 (TP 30 mg/kg/day:M 5 mg/kg/day), TPM3 (TP 15 mg/kg/day:M 5 mg/kg/day) and TPM10 (TP 30 mg/kg/day:M 3 mg/kg/day), respectively.
A large colorless rectangular box with a metallic grid floor was used (70-cm wide, 90-cm long and 60-cm high). The photobeam activity monitors (TruScan coulbourn instruments) was used for measuring real-time X-Y activity track-type plots. Overall pulses were measured in an electromechanical counter as a gross measure of activity and recorded by a PC. Each mouse was allowed to move freely for 5 min but data were not scored, and then the number of squares crossed and the plots of tracking were counted during a period of 30 min for all experiments and quantification of data was by TruScan99 software.

[6] = tested on: synaptosomal reactive oxygen species; experiment: Synaptosomal reactive oxygen species formation, DCFH-DA (Example 1); format: in vivo, mice; details: mouse excitotoxic injury
Experimental: as §1, with “g.” for “g. The supernatant was then diluted 1:1 with 1.3M sucrose to obtain a suspension with a final sucrose concentration of 0.8M. This suspension was subjected to centrifugation at 20,000 g for 30 min at 4° C., yielding a myelin-rich supernatant and a pellet (P2) consisting of synaptosomes free of myelin.”
Dichlorofluorescein-diacetate (DCFH-DA), a nonfluorescent cell-permeable compound, diffuses passively across cell membranes. […] Plates were incubated with shaking at 37° C. for 30 min before measurement of fluorescence using a Microplate Fluorometer (Labsystems, Helsinki, Finland) with an excitation wavelength of 488 nm, an emission wavelength of 525 nm, and a band width of 5 nm. […] Synaptosomal protein concentration was determined with Pierce BCA reagents according to instructions provided. […]

Na+, K+-ATPase = Na+, K+-ATPase activity of synaptosomes after excitotoxic injury (Example 1); format: in vivo, mice; details: striatum synaptosomes 24 hr after excitotoxic injury
Experimental: as §2, §3

[7] = tested on: NMDA-induced neurotoxicities; experiment: Elevated plus maze with icv NMDA (Example 2)
Experimental: In this example, the combination of TP with M (memantine) in three different dosage ratios of 6:1, 3:1, and 10:1 respectively; these are TPM6 (TP 30 mg/kg/day:M 5 mg/kg/day), TPM3 (TP 15 mg/kg/day:M 5 mg/kg/day) and TPM10 (TP 30 mg/kg/day:M 3 mg/kg/day), respectively. Their neuroprotective effects were evaluated after pretreatment for fourteen days or one day prior to the intracerebroventricular injection (icy) of 8 mM NMDA (3 μl).
For testing, mice were individually placed in the center of the maze facing a closed arm and allowed 5 min of free exploration. The number of entries into open arms, the number of entries into closed arms, and the total time spent in the open arms and total time spent in the closed arms were measured. Entry was defined as all four paws in the arms.

[8] = tested on: intrasynaptosomal Ca2+ concentration; experiment: Intrasynaptosomal Ca2+ concentration, Fluo-3/AM (Example 1); format: in vivo, mice; details: striatum, 4 hr after excitotoxic injury; control group 145.62%±7.16%; n=10
Experimental: Intrasynaptosomal Ca^2+ concentration [Ca^2+]i was determined with the calcium-sensitive fluorochrome fluo-3-acetoxymethyl (Fluo-3/AM) in the presence of acetoxymethyl ester. First, 100 L of P2 synaptosomes was prepared as described above, and 2.5 mM Fluo-3/AM (Sigma, St. Louis, Mo.) was added to each well (final reaction volume of 250 L) and incubated at 37° C. for 30 min. Fluorescence was measured in a Microplate Fluorometer (Labsystems, Helsinki, Finland) with an excitation wavelength of 490 nm and an emission wavelength of 526 nm.

[9] = tested on: mitochondrial membrane potential (ΔΨm); experiment: Mitochondrial membrane potential, DiOC6(3) (Example 1); format: in vivo, mice; details: striatum, 24 hr after excitotoxic injury; control group 85.06%±2.58%
Experimental: as §2
Mitochondrial membrane potential (ΔΨm) was measured using the fluorescent dye 3,3-diexyloxacarbocyanine iodide, DiOC6(3) (Chen Y C, Lin-Shiau S Y, Lin J K, 1998b. Involvement of reactive oxygen species and caspase 3 activation in arsenite-induced apoptosis. J Cell Physiol 177: 324-333.). Synaptosomes were prepared as described above and diluted 1:40 in Tris buffer, followed by the addition of DiOC6(3) to a final concentration of 1.5 M. After 20 min of incubation at 37° C., fluorescence was measured in a Microplate Fluorometer (Labsystems, Helsinki, Finland) with an excitation wavelength of 484 nm and an emission wavelength of 501 nm.

- locomotor activities in the open field, drug alone ([5]; consecutive 14 days, before NMDA, FIG. 7): increased locomotor activities
- decrease in jump activity, drug alone ([5]; pretreatment alone for consecutive 14 days, FIG. 8B): TPM6>M>TPM10
Compound: CC12CC3CC(C)(C1)CC(N)(C3)C2 [memantine, Memantine hydrochloride]
- mitochondrial reductase activity (MTT test) [1]: 93.53%±8.53%
- improvement of impaired locomotor activity after excitotoxic injury [2]: substantial but nonsignificant improvement
- attenuations of NMDA-induced seizure scores in percentage [3]: 60±10%
- NO levels of brain synaptosomes increased by NMDA (NO levels): decreased
- reversal of disturbance in rotarod motor equilibrium function induced by NMDA ([4]; drug one day before and consecutive 14 days following NMDA, FIG. 10D): reversed
- motor equilibrium function, drug alone ([4]; prolonged use alone, FIG. 8D): reduced the motor equilibrium function
- attenuation of decreased Mg2+-ATPase activity (Mg2+-ATPase): only minimally attenuated
- reversal of decreased locomotor activities induced by NMDA ([5]; drug one day before and consecutive 14 days following NMDA, FIG. 10A): partially reversed
- reversal of decrease in jump activity induced by NMDA ([5]; drug one day before and consecutive 14 days following NMDA, FIG. 10B): partially reversed
- order of neuroprotective potencies against NMDA-decreased locomotor activities ([5]; pretreatment 14 days, FIG. 8A): TPM10>TPM6>TPM3>M
- order of neuroprotective potencies against the decreased jump exploratory effect of NMDA ([5]; pretreatment 14 days, FIG. 8B): M>TPM6>TPM3>TPM10
- NMDA-decreased locomotor activities, prevention by pretreatment ([5]; pretreatment 14 days, icv 3 μl of 8 mM NMDA): prevented
- effect on increased synaptosomal ROS production [6]: does not have any significant effects
- attenuation of decreased Na+, K+-ATPase activity (Na+, K+-ATPase): only minimally attenuated
- attenuation of increased retention time in the opened plus maze by NMDA ([7]; drug one day before and consecutive 14 days following NMDA, FIG. 10C): followed in order by TPM6, TPM10 and then M
- retention time in the open field of elevated plus maze, drug alone ([7]; prolonged use alone, FIG. 8C): prominently increased retention time
- intrasynaptosomal Ca2+ concentration [Ca2+]i [8]: 123.04%±6.70%
- mitochondrial membrane potential (ΔΨm) [9]: 94.23%±4.19%
